Measured values as given in patent US20050266575A1 (priority 2004, published 2005).
No end group written: not given here.

Legend:
ORL1 [1] = target: T1, ORL1 (Homo sapiens, UniProt P41146); test: Calcium flux (FLIPR) in carbachol-sensitized HEK-293 cells expressing ORL-1 receptor; type: cell-based; design: expressed in transfected cells; host or cells: HEK-293 cells expressing ORL-1 receptor; conditions: for EC50: HEK-293 cells expressing ORL-1, pretreated with 100 μM carbachol, read-out: EC50 (calcium release); for EC50(x)/EC50(WT): ratio of variant EC50 to nociceptin EC50
Description: HEK-293 cells expressing ORL-1 receptor were plated at a density of 50,000 cells/well in a total volume of 50 ↑L onto 96-well plates. Two days later cells were prepared for assay using the FLIPR Calcium Assay Kit (Molecular Devices) according to manufacturer's directions, with the exception that the volume of dye mix added to each well was 50 μL instead of 100 μL. Cells were then treated with 100 μM carbachol in 100 μL. […] Data points were collected at one per second for 120 seconds, then one every three seconds for 30 seconds for a total collection time of 150 seconds after both the first and second additions.
This produced a “percent of carbachol response” for each dose. The experiment was repeated 6 times and the high and low values for each concentration were dropped. The data were used to generate EC50 curves using GraphPad Prizm v.3.0 software.
Target sequence in this assay (P41146 whole entry): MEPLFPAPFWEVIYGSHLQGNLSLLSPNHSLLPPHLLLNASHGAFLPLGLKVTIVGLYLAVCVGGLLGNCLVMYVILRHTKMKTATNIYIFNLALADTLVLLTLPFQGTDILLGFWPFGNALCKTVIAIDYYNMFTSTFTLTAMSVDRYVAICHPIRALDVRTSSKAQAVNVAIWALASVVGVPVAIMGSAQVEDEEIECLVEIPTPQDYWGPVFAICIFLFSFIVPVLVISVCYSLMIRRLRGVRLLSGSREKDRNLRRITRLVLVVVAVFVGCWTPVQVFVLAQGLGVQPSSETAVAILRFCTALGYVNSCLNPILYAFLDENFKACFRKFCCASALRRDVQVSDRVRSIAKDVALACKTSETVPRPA

[2] = target: T2, human nociceptin receptor (ORL-1) (Homo sapiens, UniProt P41146); test: Nociceptin receptor binding assay: binding of 125I-Tyr14-nociceptin to ORL-1 on HEK-293 cell membranes; conditions: for Ki: competition with 0.5 nM 125I-Tyr14-nociceptin, HEK-293 cell membranes, 3 experiments in duplicate; for Ki(x)/Ki(WT): ratio of variant Ki to nociceptin Ki
T2 construct: expressed in transfected cells
Description: Binding of peptides to the ORL-1 Receptor. […] ORL-1 membranes were diluted in binding buffer such that 25 μL containing 1 microgram (μg) of membrane was added to each well of a standard 96-well microtiter in binding buffer. […] Plates were incubated for two hours at room temperature and the reactions were filtered over GF/C Filterplates (Perkin Elmer-NEN), prewetted in 0.03% polyethleneimine, in a Filtermate 196 apparatus (Packard). Plates were washed six times with binding buffer in the filtration apparatus, then dried under vacuum for 1-2 hours. Twenty five microliters (25 μL) Microscint 20 (Packard) per well was added to solubilize bound radioactivity. The plates were then sealed and counted on a Packard Top Count to determine radioactivity bound to the membranes. Curves were fitted and IC50 values determined using Graphpad Prizm software (v3.0).

ORL1 [3] = target: T1, ORL1; conditions: cited from earlier work
Target sequence in this assay (P41146 whole entry, species assumed): as the sequence (P41146 whole entry) above

T2 sequence (P41146 whole entry): as above

Compound	EC50 (ORL1 [1]) [nM]	EC50(x)/EC50(WT) (ORL1 [1])	Ki [2] [nM]	Ki(x)/Ki(WT) [2]	fold lower affinity for ORL1 than nociceptin (ORL1 [3]) [fold]
AGGFTGARKSARKLANQ [Peptide F1A]	1440	601	91	127	–
FGGFTGARKSARKLAAQ [Peptide N16A]	1.7	0.7	0.3	0.4	–
FGGFTGARKSSRKLANQ [Peptide A11S]	1.2	0.5	1.2	1.7	–
FGGFTGARKSARALANQ [Peptide K13A]	1.1	0.5	1.5	2.1	–
FGGFTGAKKSARKLANQ [Peptide R8K]	64	27	32	45	–
CCCC[C@H](NC(=O)CNC(=O)[C@@H](NC(=O)[C@H](Cc1ccccc1)NC(=O)CNC(=O)CNC(=O)[C@@H](N)Cc1ccccc1)[C@@H](C)O)C(=O)N[C@@H](CCCNC(=N)N)C(=O)N[C@@H](CCCCN)C(=O)N[C@@H](CO)C(=O)N[C@@H](C)C(=O)N[C@@H](CCCNC(=N)N)C(=O)N[C@@H](CCCCN)C(=O)N[C@@H](CC(C)C)C(=O)N[C@@H](C)C(=O)N[C@@H](CC(N)=O)C(=O)N[C@@H](CCC(N)=O)C(=O)O [Peptide A7nleu]	29	12	0.5	0.7	–
FGAFTGARKSARKLANQ [Peptide G3A]	13	5.5	1.6	2.2	–
FGGFTGARKAARKLANQ [Peptide S10A]	42	18	0.8	1.2	–
CCCC[C@H](NC(=O)[C@H](CO)NC(=O)[C@H](CCCCN)NC(=O)[C@H](CCCNC(=N)N)NC(=O)[C@H](C)NC(=O)CNC(=O)[C@@H](NC(=O)[C@H](Cc1ccccc1)NC(=O)CNC(=O)CNC(=O)[C@@H](N)Cc1ccccc1)[C@@H](C)O)C(=O)N[C@@H](CCCNC(=N)N)C(=O)N[C@@H](CCCCN)C(=O)N[C@@H](CC(C)C)C(=O)N[C@@H](C)C(=O)N[C@@H](CC(N)=O)C(=O)N[C@@H](CCC(N)=O)C(=O)O [Peptide A11nleu]	4.2	1.8	1.9	2.6	–
FGGFLGARKSARKLANQ [Peptide T5L]	14	5.7	2.2	3.1	–
FGGFTGGRKSARKLANQ [Peptide A7G]	18	7.4	7.7	11	–
FGGATGARKSARKLANQ [Peptide F4A]	3880	1617	188	262	–
FGGFTGARKSGRKLANQ [Peptide A11G]	11	4.8	3.2	4.4	–
FGGFTGARKSARKAANQ [Peptide L14A]	7	2.9	0.2	0.3	–
FGGFAGARKSARKLANQ [Peptide T5A]	159	66	6.4	8.9	–
FGGFTGARKSAAKLANQ [Peptide R12A]	1.3	0.5	2.8	3.9	–
FGGFTGARKSARKLGNQ [Peptide A15G]	1.9	0.8	0.2	0.3	–
FGGFTGARASARKLANQ [Peptide K9A]	2.8	1.2	1.5	2.1	–
FGGFTGAAKSARKLANQ [Peptide R8A]	69	29	50	69	–
FAGFTGARKSARKLANQ [Peptide G2A]	1390	581	191	265	–
FGGFSGARKSARKLANQ [Peptide T5S]	27	11	1.4	2.0	–
FGGFTGARKSLRKLANQ [Peptide A11L]	8.3	3.5	0.9	1.2	–
FGGFTAARKSARKLANQ [Peptide G6A]	39	16	1.5	2.1	–
FGGFTGSRKSARKLANQ [Peptide A7S]	5.6	2.3	1.5	2.1	–
Y G G F L R R I R P K L K W D N Q [Dynorphin A]	–	–	–	–	100
FGGFTGAKKSAKKLANQ [R8K/R12K]	53.5	22	3.9	5.4	–
FGGFTGARKSARKLANA [Peptide Q17A]	12	4.8	0.8	1.1	–
FGGFTGARKSAKKLANQ [Peptide R12K]	2.4	1.0	0.8	1.1	–
FGGFTGLRKSARKLANQ [Peptide A7L]	13	5.2	0.8	1.1	–
